Measured values from the kinase profiling compilation of Christmann-Franck et al. (2016).

Legend:
Assay in all cases: KINOMEscan competition binding
Conditions in all cases: compound 10.0 µM
MAP4K1 (human) = MAP4K1 (human) (UniProt Q92918)
PRKACB (human) = PRKACB (human) (UniProt P22694)
PIK3CG (human) = PIK3CG (human) (UniProt P48736)
CDK14 (human) = CDK14 (human) (UniProt O94921)
BMPR1A (human) = BMPR1A (human) (UniProt P36894)
MARK1 (human) = MARK1 (human) (UniProt Q9P0L2)
CLK1 (human) = CLK1 (human) (UniProt P49759)
CLK2 (human) = CLK2 (human) (UniProt P49760)
PRKAA1 (human) = PRKAA1 (human) (UniProt Q13131)
DAPK3 (human) = DAPK3 (human) (UniProt O43293)
TLK2 (human) = TLK2 (human) (UniProt Q86UE8)
MAPK13 (human) = MAPK13 (human) (UniProt O15264)
MAP3K10 (human) = MAP3K10 (human) (UniProt Q02779)
EPHA3 (human) = EPHA3 (human) (UniProt P29320)
[1] = system: BMX (human), P51813 [V600E]
MAPK4 (human) = MAPK4 (human) (UniProt P31152)
MAPKAPK2 (human) = MAPKAPK2 (human) (UniProt P49137)
EPHA8 (human) = EPHA8 (human) (UniProt P29322)
IGF1R (human) = IGF1R (human) (UniProt P08069)
[2] = system: EGFR (human), P00533 [G719C]
PDGFRA (human) = PDGFRA (human) (UniProt P16234)
GRK4 (human) = GRK4 (human) (UniProt P32298)
[3] = system: FLT3 (human), P36888 [D835Y]
RIOK2 (human) = RIOK2 (human) (UniProt Q9BVS4)
ADCK3 (human) = ADCK3 (human) (UniProt Q8NI60)
[4] = system: PIK3CA (human), P42336 [H1047L]
BRSK2 (human) = BRSK2 (human) (UniProt Q8IWQ3)
MAP3K15 (human) = MAP3K15 (human) (UniProt Q6ZN16)
CDC42BPA (human) = CDC42BPA (human) (UniProt Q5VT25)
CDK5 (human) = CDK5 (human) (UniProt Q00535)
TXK (human) = TXK (human) (UniProt P42681)
BMPR2 (human) = BMPR2 (human) (UniProt Q13873)
[5] = system: RET (human), P07949 [V804L]
PIM3 (human) = PIM3 (human) (UniProt Q86V86)
PRKCD (human) = PRKCD (human) (UniProt Q05655)
Sequence of PRKCD (human) (Q05655 whole entry, looked up): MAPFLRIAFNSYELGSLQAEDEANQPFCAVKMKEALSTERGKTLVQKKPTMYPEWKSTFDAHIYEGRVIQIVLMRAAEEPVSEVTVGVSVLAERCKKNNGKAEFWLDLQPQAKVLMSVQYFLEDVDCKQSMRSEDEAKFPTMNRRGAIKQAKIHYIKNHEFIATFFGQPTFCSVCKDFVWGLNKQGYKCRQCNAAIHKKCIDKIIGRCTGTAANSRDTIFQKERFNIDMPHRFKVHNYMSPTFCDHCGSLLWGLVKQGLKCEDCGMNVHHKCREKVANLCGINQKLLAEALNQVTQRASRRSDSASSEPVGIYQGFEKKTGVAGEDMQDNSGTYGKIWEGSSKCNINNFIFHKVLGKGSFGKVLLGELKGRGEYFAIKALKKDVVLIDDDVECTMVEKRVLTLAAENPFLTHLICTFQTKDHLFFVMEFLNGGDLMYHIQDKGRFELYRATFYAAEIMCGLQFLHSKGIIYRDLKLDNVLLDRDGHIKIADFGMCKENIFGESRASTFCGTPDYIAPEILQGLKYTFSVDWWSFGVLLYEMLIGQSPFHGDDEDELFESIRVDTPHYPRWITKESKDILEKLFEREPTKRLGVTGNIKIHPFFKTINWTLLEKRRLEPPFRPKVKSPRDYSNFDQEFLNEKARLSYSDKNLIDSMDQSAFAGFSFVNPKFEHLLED

Sequence of BMPR1A (human) (P36894 whole entry, looked up): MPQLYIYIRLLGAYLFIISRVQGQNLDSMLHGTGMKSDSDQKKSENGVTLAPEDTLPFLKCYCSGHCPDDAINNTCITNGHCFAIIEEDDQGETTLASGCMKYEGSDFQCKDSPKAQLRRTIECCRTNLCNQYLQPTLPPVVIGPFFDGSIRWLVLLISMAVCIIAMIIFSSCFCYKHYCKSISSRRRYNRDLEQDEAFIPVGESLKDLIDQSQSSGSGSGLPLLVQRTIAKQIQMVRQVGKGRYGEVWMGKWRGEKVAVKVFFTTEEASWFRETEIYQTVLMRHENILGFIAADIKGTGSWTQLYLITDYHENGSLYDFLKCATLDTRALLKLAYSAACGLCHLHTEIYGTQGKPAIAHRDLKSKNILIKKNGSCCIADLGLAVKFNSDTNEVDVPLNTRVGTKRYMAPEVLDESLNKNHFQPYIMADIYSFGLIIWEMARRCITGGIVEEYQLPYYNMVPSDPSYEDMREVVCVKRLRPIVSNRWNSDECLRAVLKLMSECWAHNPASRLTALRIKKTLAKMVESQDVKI
Sequence of CDK5 (human) (Q00535 whole entry, looked up): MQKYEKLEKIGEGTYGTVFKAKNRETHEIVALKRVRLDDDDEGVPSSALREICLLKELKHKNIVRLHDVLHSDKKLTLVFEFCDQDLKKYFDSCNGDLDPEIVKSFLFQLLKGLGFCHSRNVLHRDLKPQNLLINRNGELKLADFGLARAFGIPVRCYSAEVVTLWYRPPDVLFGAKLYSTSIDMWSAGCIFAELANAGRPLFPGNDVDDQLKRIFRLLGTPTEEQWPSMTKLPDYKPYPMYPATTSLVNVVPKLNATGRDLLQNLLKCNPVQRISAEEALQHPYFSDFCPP
Sequence of PIK3CG (human) (P48736 whole entry, looked up): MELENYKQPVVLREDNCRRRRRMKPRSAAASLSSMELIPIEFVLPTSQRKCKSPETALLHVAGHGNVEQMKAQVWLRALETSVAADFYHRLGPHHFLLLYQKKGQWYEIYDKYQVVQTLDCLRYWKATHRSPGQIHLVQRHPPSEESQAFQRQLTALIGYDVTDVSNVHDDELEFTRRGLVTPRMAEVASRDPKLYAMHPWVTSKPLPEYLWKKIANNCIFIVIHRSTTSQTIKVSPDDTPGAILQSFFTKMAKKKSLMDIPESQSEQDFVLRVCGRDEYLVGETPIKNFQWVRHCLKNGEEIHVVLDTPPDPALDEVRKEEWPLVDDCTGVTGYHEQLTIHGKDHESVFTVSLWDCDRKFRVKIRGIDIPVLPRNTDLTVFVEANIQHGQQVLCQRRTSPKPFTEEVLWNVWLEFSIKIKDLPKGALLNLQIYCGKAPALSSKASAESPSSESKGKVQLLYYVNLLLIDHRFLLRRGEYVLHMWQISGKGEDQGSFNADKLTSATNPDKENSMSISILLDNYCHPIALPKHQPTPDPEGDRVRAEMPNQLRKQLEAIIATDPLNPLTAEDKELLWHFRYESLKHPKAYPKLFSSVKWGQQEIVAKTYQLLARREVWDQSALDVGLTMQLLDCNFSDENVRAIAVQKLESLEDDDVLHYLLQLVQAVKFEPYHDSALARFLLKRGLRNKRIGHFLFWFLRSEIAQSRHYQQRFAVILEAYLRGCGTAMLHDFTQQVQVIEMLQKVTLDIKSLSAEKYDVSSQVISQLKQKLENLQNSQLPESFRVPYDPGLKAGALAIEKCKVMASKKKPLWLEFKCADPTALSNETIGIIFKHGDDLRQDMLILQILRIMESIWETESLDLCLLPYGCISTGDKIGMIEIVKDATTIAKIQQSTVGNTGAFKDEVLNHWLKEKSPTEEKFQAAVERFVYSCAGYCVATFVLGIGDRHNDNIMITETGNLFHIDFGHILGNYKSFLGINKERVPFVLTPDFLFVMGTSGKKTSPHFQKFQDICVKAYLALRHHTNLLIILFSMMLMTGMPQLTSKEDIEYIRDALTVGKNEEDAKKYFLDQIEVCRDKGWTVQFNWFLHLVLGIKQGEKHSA
Sequence of IGF1R (human) (P08069 whole entry, looked up): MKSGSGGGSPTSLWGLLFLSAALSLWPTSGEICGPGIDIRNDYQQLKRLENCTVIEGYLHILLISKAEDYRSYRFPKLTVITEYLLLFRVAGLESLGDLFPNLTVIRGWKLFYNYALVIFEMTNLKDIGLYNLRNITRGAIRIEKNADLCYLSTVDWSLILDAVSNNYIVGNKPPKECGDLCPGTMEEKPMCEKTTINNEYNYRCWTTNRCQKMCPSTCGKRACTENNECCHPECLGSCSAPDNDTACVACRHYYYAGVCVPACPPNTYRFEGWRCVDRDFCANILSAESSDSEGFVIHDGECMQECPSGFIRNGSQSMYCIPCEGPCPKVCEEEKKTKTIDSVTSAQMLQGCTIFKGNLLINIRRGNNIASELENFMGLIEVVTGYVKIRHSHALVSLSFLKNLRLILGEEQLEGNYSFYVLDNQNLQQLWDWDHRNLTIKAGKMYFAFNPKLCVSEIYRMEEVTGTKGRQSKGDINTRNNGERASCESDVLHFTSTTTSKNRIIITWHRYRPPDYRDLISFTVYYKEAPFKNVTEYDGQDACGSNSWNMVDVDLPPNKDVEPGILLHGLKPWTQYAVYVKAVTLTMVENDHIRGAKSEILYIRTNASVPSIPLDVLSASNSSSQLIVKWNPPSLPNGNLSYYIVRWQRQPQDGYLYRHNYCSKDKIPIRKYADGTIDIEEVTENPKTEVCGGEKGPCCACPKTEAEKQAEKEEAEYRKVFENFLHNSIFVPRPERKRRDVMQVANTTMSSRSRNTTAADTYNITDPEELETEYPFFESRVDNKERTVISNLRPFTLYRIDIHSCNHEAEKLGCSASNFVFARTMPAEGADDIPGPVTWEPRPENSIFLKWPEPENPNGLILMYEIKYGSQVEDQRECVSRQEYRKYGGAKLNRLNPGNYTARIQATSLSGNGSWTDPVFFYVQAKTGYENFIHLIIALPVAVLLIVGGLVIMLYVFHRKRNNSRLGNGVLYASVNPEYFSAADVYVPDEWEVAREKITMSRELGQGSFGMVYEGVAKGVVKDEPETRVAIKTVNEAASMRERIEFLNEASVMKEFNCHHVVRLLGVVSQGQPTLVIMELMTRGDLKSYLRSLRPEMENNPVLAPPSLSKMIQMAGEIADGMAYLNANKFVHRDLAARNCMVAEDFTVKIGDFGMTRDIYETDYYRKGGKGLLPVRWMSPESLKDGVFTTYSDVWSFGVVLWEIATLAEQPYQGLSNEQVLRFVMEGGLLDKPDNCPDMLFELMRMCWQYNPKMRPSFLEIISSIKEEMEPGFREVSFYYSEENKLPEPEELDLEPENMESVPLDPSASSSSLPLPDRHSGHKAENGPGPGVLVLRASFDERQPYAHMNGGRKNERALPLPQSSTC
Sequence of MAPK4 (human) (P31152 whole entry, looked up): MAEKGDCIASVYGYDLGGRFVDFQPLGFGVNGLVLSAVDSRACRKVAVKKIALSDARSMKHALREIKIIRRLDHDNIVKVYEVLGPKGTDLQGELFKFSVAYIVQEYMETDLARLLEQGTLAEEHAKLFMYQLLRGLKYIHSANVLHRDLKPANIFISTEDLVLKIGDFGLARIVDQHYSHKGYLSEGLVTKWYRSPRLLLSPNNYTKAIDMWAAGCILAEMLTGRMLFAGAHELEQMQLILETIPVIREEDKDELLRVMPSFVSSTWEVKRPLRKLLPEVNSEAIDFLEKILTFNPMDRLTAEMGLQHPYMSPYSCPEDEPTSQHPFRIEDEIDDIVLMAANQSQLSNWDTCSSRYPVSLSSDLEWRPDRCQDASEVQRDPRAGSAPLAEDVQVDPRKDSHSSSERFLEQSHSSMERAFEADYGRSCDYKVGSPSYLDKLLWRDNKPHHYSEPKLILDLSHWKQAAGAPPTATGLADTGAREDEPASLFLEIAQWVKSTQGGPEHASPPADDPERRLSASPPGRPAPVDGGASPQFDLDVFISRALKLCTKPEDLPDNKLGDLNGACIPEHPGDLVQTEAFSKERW
Sequence of MAPKAPK2 (human) (P49137 whole entry, looked up): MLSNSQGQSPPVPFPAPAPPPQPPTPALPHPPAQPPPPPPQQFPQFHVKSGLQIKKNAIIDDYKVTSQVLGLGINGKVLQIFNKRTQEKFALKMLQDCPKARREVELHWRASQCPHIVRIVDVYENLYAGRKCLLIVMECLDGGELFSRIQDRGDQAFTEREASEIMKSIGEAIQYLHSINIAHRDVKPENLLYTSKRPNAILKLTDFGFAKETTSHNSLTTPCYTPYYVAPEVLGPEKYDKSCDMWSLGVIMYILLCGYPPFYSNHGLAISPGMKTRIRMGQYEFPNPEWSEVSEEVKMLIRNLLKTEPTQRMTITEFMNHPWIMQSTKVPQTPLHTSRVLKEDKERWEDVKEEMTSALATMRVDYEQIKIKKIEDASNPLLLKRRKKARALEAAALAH

kinase still bound, per cent of control (MAP4K1 (human)) | kinase still bound, per cent of control (PRKACB (human)) | kinase still bound, per cent of control (CDK14 (human)) | kinase still bound, per cent of control (MARK1 (human)) | kinase still bound, per cent of control (CLK1 (human)) | kinase still bound, per cent of control (CLK2 (human)) | kinase still bound, per cent of control (PRKAA1 (human)) | kinase still bound, per cent of control (DAPK3 (human)) | kinase still bound, per cent of control (TLK2 (human)) | kinase still bound, per cent of control (MAP3K10 (human)) | kinase still bound, per cent of control (EPHA3 (human)) | kinase still bound, per cent of control [1] | kinase still bound, per cent of control (MAPK4 (human)) | kinase still bound, per cent of control (MAPKAPK2 (human)) | kinase still bound, per cent of control (EPHA8 (human)) | kinase still bound, per cent of control (IGF1R (human)) | kinase still bound, per cent of control [2] | kinase still bound, per cent of control (PDGFRA (human)) | kinase still bound, per cent of control [3] | kinase still bound, per cent of control (ADCK3 (human)) | SMILES | also measured
100% | 100% | 100% | 100% | 100% | 100% | 100% | 100% | 100% | 100% | 100% | 100% | 100% | 100% | 100% | 100% | 100% | 100% | 100% | 100% | CCOc1cc(N2CCC(O)CC2)ccc1Nc1ncc2c(n1)N(C)c1ccccc1C(=O)N2C | kinase still bound, per cent of control (PIK3CG (human)): 100%; kinase still bound, per cent of control (BMPR1A (human)): 100%; kinase still bound, per cent of control (MAPK13 (human)): 100%; kinase still bound, per cent of control (GRK4 (human)): 100%; kinase still bound, per cent of control (RIOK2 (human)): 100%; kinase still bound, per cent of control [4]: 100%; kinase still bound, per cent of control (BRSK2 (human)): 100%; kinase still bound, per cent of control (MAP3K15 (human)): 100%; kinase still bound, per cent of control (CDC42BPA (human)): 100%; kinase still bound, per cent of control (CDK5 (human)): 100%; kinase still bound, per cent of control (TXK (human)): 100%; kinase still bound, per cent of control (BMPR2 (human)): 100%; kinase still bound, per cent of control [5]: 100%; kinase still bound, per cent of control (PIM3 (human)): 100%; kinase still bound, per cent of control (PRKCD (human)): 100%
4.6% | 27% | 100% | 100% | 100% | 100% | 1.6% | 100% | 100% | 100% | 0.1% | 9.7% | 100% | 100% | 0% | 100% | 23% | 8.6% | 100% | 100% | COc1ccc(N(C(=O)Oc2cc(C(=O)Nc3cccc(C(F)(F)F)c3)ccc2C)c2ccnc(Nc3ccc(N4CCN(C)CC4)cc3)n2)c(OC)c1 | kinase still bound, per cent of control (BRSK2 (human)): 100%; kinase still bound, per cent of control (CDC42BPA (human)): 100%; kinase still bound, per cent of control (CDK5 (human)): 100%; kinase still bound, per cent of control (TXK (human)): 0.65%; kinase still bound, per cent of control (BMPR2 (human)): 1.1%; kinase still bound, per cent of control (PIM3 (human)): 100%; kinase still bound, per cent of control (PRKCD (human)): 100%

The next lines start with the molecule.

SMILES | kinase still bound, per cent of control (MAP4K1 (human)) | kinase still bound, per cent of control (PRKACB (human)) | kinase still bound, per cent of control (CDK14 (human)) | kinase still bound, per cent of control (MARK1 (human)) | kinase still bound, per cent of control (CLK1 (human)) | kinase still bound, per cent of control (CLK2 (human)) | kinase still bound, per cent of control (PRKAA1 (human)) | kinase still bound, per cent of control (DAPK3 (human)) | kinase still bound, per cent of control (TLK2 (human)) | kinase still bound, per cent of control (MAP3K10 (human)) | kinase still bound, per cent of control (EPHA3 (human)) | kinase still bound, per cent of control [1] | kinase still bound, per cent of control (MAPK4 (human)) | kinase still bound, per cent of control (MAPKAPK2 (human)) | kinase still bound, per cent of control (EPHA8 (human)) | kinase still bound, per cent of control (IGF1R (human)) | kinase still bound, per cent of control [2] | kinase still bound, per cent of control (PDGFRA (human)) | kinase still bound, per cent of control [3] | kinase still bound, per cent of control (ADCK3 (human)) | also measured
Cc1cn(-c2cc(C(=O)Nc3ccc(C)c(NC(=O)c4ccno4)c3)cc(C(F)(F)F)c2)cn1 | 100% | 100% | 100% | 100% | 100% | 100% | 100% | 100% | 100% | 100% | 9.5% | 1.3% | 100% | 100% | 0.3% | 100% | 100% | 1.2% | 100% | 100% | kinase still bound, per cent of control (PIK3CG (human)): 100%; kinase still bound, per cent of control (BMPR1A (human)): 100%; kinase still bound, per cent of control (MAPK13 (human)): 100%; kinase still bound, per cent of control (GRK4 (human)): 100%; kinase still bound, per cent of control (RIOK2 (human)): 100%; kinase still bound, per cent of control [4]: 100%; kinase still bound, per cent of control (BRSK2 (human)): 100%; kinase still bound, per cent of control (MAP3K15 (human)): 100%; kinase still bound, per cent of control (CDC42BPA (human)): 100%; kinase still bound, per cent of control (CDK5 (human)): 100%; kinase still bound, per cent of control (TXK (human)): 12%; kinase still bound, per cent of control (BMPR2 (human)): 100%; kinase still bound, per cent of control [5]: 100%; kinase still bound, per cent of control (PIM3 (human)): 100%; kinase still bound, per cent of control (PRKCD (human)): 100%
COc1cc(C)c(Sc2cnc(NC(=O)c3ccc(CNC(C)C(C)C)cc3)s2)cc1C(=O)N1CCN(C(C)=O)CC1 (stereo unspecified) | 25% | 100% | 100% | 100% | 4.9% | 3.7% | 100% | 100% | 100% | 100% | 25% | 100% | 100% | 100% | 100% | 4.1% | 100% | 100% | 26% | 100% | kinase still bound, per cent of control (PIK3CG (human)): 100%; kinase still bound, per cent of control (BMPR1A (human)): 100%; kinase still bound, per cent of control (MAPK13 (human)): 100%; kinase still bound, per cent of control (RIOK2 (human)): 100%; kinase still bound, per cent of control (BRSK2 (human)): 100%; kinase still bound, per cent of control (CDC42BPA (human)): 100%; kinase still bound, per cent of control (CDK5 (human)): 100%; kinase still bound, per cent of control (TXK (human)): 100%; kinase still bound, per cent of control (BMPR2 (human)): 100%; kinase still bound, per cent of control [5]: 100%; kinase still bound, per cent of control (PIM3 (human)): 100%; kinase still bound, per cent of control (PRKCD (human)): 100%
COc1cc(N2CCC(C(N)=O)CC2)ccc1Nc1nc(N)c(Cl)c(Nc2ccccc2S(=O)(=O)C(C)C)n1 | 100% | 100% | 100% | 100% | 0.7% | 4.6% | 100% | 100% | 100% | 100% | 100% | 100% | 100% | 100% | 100% | 0.65% | 20% | 100% | 5.2% | 0.1% | kinase still bound, per cent of control (PIK3CG (human)): 100%; kinase still bound, per cent of control (BMPR1A (human)): 100%; kinase still bound, per cent of control (MAPK13 (human)): 100%; kinase still bound, per cent of control (RIOK2 (human)): 100%; kinase still bound, per cent of control (BRSK2 (human)): 100%; kinase still bound, per cent of control (CDC42BPA (human)): 100%; kinase still bound, per cent of control (CDK5 (human)): 100%; kinase still bound, per cent of control (TXK (human)): 100%; kinase still bound, per cent of control (BMPR2 (human)): 100%; kinase still bound, per cent of control [5]: 100%; kinase still bound, per cent of control (PIM3 (human)): 100%; kinase still bound, per cent of control (PRKCD (human)): 100%
